Reference: PubChem BioAssay AID328 (DTP/NCI, 2004)
Where “and” joins values, the source holds several entries; their conditions need not be identical. Identical values can stand only once. Inconclusive results and toxic doses are left out.

Test system: BDF1 mice, P388 leukemia ip, median survival T/C
Experiment: NCI In Vivo Anticancer Drug Screen. Data for tumor model P388 Leukemia (intraperitoneal) in B6D2F1 (BDF1) mice
Conditions: endpoint: median survival time, higher = longer survival
Outline: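 Antitumour effect was judged in vivo: survival in drug-treated mice, normalised to that of vehicle-dosed controls, gives the reported T/C.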

[1] = dose: 6.25 mg/kg/injection, schedule: Q01DX009 (ip), vehicle: saline
[2] = dose: 12.5 mg/kg/injection, schedule: Q01DX009 (ip), vehicle: Klucel (hydroxypropylcellulose) (HPC)
[3] = dose: 25.0 mg/kg/injection, schedule: Q01DX009 (ip), vehicle: Klucel (hydroxypropylcellulose) (HPC)
[4] = dose: 25.0 mg/kg/injection, schedule: Q04DX003 (ip), vehicle: saline
[5] = dose: 100.0 mg/kg/injection, schedule: Q01DX009 (ip), vehicle: saline with Tween-80
[6] = dose: 200.0 mg/kg/injection, schedule: Q01DX009 (ip), vehicle: saline with Tween-80
[7] = dose: 200.0 mg/kg/injection, schedule: Q01DX009 (ip), vehicle: saline
[8] = dose: 25.0 mg/kg/injection, schedule: Q01DX009 (ip), vehicle: saline with Tween-80
[9] = dose: 50.0 mg/kg/injection, schedule: Q01DX009 (ip), vehicle: saline with Tween-80
[10] = dose: 50.0 mg/kg/injection, schedule: Q01DX009 (ip), vehicle: saline

Structure (SMILES): C1CNCC[N-]1.C1CNCC[N-]1.[Cl][Pt+2]([Cl])([Cl])[Cl]
- T/C (dose: 3.12 mg/kg/injection, schedule: Q04DX003 (ip), vehicle: saline): 106 % of control and 115 % of control
- T/C [1]: 106 % of control
- T/C (dose: 6.25 mg/kg/injection, schedule: Q04DX003 (ip), vehicle: saline): 100 % of control and 115 % of control
- T/C [2]: 108 % of control
- T/C (dose: 12.5 mg/kg/injection, schedule: Q04DX003 (ip), vehicle: saline): 93 % of control and 98 % of control and 100 % of control
- T/C [3]: 120 % of control
- T/C [4]: 108 % of control

Structure (SMILES): COC1=C(N)C(=O)c2ncccc2C1=O
- T/C (dose: 4.0 mg/kg/injection, schedule: Q01DX010 (ip), vehicle: acetone): 113 % of control
- T/C (dose: 8.0 mg/kg/injection, schedule: Q01DX010 (ip), vehicle: acetone): 109 % of control

Structure (SMILES): COc1cc([N+](=O)[O-])c(C)cc1NC(=O)c1ccc(OC)c(OC)c1
- T/C (dose: 0.78 mg/kg/injection, schedule: Q01DX009 (ip), vehicle: saline): 100 % of control
- T/C (dose: 1.56 mg/kg/injection, schedule: Q01DX009 (ip), vehicle: saline): 115 % of control
- T/C (dose: 3.12 mg/kg/injection, schedule: Q01DX009 (ip), vehicle: saline): 88 % of control
- T/C [1]: 86 % of control

Structure (SMILES): CC1(O)c2ccccc2-c2nc3ccccc3nc21 (stereo not drawn)
- T/C [5]: 104 % of control
- T/C [6]: 100 % of control
- T/C (dose: 400.0 mg/kg/injection, schedule: Q01DX009 (ip), vehicle: saline with Tween-80): 118 % of control

Structure (SMILES): C/C=C/C(=O)OCC1CC[N+](C)([O-])C1 (stereo not drawn)
- T/C (dose: 200.0 mg/kg/injection, schedule: Q01DX001 (ip), vehicle: saline): 91 % of control
- T/C [7]: 117 % of control
- T/C (dose: 400.0 mg/kg/injection, schedule: Q01DX001 (ip), vehicle: saline): 91 % of control
- T/C (dose: 800.0 mg/kg/injection, schedule: Q01DX001 (ip), vehicle: saline): 100 % of control
- T/C (dose: 800.0 mg/kg/injection, schedule: Q01DX009 (ip), vehicle: saline): 99 % of control
- T/C (dose: 1600.0 mg/kg/injection, schedule: Q01DX001 (ip), vehicle: saline): 95 % of control

Structure (SMILES): O=C1C=C(NCc2ccccc2)CCC1
- T/C [8]: 108 % of control
- T/C [9]: 100 % of control
- T/C [10]: 96 % of control
- T/C [7]: 105 % of control

Structure (SMILES): O=C(NCc1cnccn1)Nc1ccccc1
- T/C [4]: 104 % of control
- T/C (dose: 50.0 mg/kg/injection, schedule: Q04DX003 (ip), vehicle: saline): 103 % of control
- T/C (dose: 100.0 mg/kg/injection, schedule: Q04DX003 (ip), vehicle: saline): 87 % of control
- T/C (dose: 200.0 mg/kg/injection, schedule: Q04DX003 (ip), vehicle: saline): 100 % of control
- T/C (dose: 400.0 mg/kg/injection, schedule: Q04DX003 (ip), vehicle: saline): 100 % of control

Structure (SMILES): O=C(c1c(F)c(F)c(F)c(F)c1F)N1CC1
- T/C (dose: 25.0 mg/kg/injection, schedule: Q01DX009 (ip), vehicle: water): 106 % of control
- T/C (dose: 25.0 mg/kg/injection, schedule: Q04DX003 (ip), vehicle: water): 104 % of control
- T/C (dose: 50.0 mg/kg/injection, schedule: Q01DX009 (ip), vehicle: water): 111 % of control
- T/C (dose: 50.0 mg/kg/injection, schedule: Q04DX003 (ip), vehicle: water): 91 % of control
- T/C (dose: 100.0 mg/kg/injection, schedule: Q01DX009 (ip), vehicle: water): 111 % of control
- T/C (dose: 100.0 mg/kg/injection, schedule: Q04DX003 (ip), vehicle: water): 106 % of control
- T/C (dose: 200.0 mg/kg/injection, schedule: Q01DX009 (ip), vehicle: water): 97 % of control
- T/C (dose: 200.0 mg/kg/injection, schedule: Q04DX003 (ip), vehicle: water): 106 % of control
- T/C (dose: 400.0 mg/kg/injection, schedule: Q01DX009 (ip), vehicle: water): 100 % of control
- T/C (dose: 400.0 mg/kg/injection, schedule: Q04DX003 (ip), vehicle: water): 100 % of control

Structure (SMILES): COc1ccc(SC/C(=N\NOS(=O)(=O)c2ccc(C)cc2)c2ccccc2)cc1
- T/C [10]: 96 % of control
- T/C (dose: 100.0 mg/kg/injection, schedule: Q01DX009 (ip), vehicle: saline): 98 % of control
- T/C [7]: 109 % of control

Structure (SMILES): Nc1cc2c(c(Cl)c1Br)-c1ccccc1C2=O
- T/C [2]: 90 % of control
- T/C [3]: 86 % of control
- T/C (dose: 100.0 mg/kg/injection, schedule: Q01DX001 (ip), vehicle: other): 86 % of control
- T/C (dose: 200.0 mg/kg/injection, schedule: Q01DX001 (ip), vehicle: other): 104 % of control
- T/C (dose: 400.0 mg/kg/injection, schedule: Q01DX001 (ip), vehicle: other): 104 % of control

Structure (SMILES): Cc1ccc2c(c1)CC(C)([CH2][Hg][Cl])O2 (stereo not drawn)
- T/C (dose: 3.0 mg/kg/injection, schedule: Q01DX009 (ip), vehicle: Klucel (hydroxypropylcellulose) (HPC)): 94 % of control
- T/C (dose: 3.0 mg/kg/injection, schedule: Q04DX003 (ip), vehicle: Klucel (hydroxypropylcellulose) (HPC)): 103 % of control
- T/C (dose: 6.0 mg/kg/injection, schedule: Q01DX009 (ip), vehicle: Klucel (hydroxypropylcellulose) (HPC)): 105 % of control
- T/C (dose: 6.0 mg/kg/injection, schedule: Q04DX003 (ip), vehicle: Klucel (hydroxypropylcellulose) (HPC)): 94 % of control
- T/C (dose: 12.0 mg/kg/injection, schedule: Q01DX009 (ip), vehicle: Klucel (hydroxypropylcellulose) (HPC)): 119 % of control
- T/C (dose: 12.0 mg/kg/injection, schedule: Q04DX003 (ip), vehicle: Klucel (hydroxypropylcellulose) (HPC)): 100 % of control

Structure (SMILES): Cc1ccc(C)c(CCN)c1
- T/C [8]: 122 % of control
- T/C (dose: 25.0 mg/kg/injection, schedule: Q04DX003 (ip), vehicle: saline with Tween-80): 100 % of control
- T/C [9]: 104 % of control
- T/C (dose: 50.0 mg/kg/injection, schedule: Q04DX003 (ip), vehicle: saline with Tween-80): 100 % of control
- T/C (dose: 100.0 mg/kg/injection, schedule: Q04DX003 (ip), vehicle: saline with Tween-80): 100 % of control

Structure (SMILES): O=C(Nc1cccc2ccccc12)ON1C(=O)c2ccccc2C1=O
- T/C (dose: 50.0 mg/kg/injection, schedule: Q01DX005 (ip), vehicle: saline with Tween-80): 110 % of control
- T/C (dose: 100.0 mg/kg/injection, schedule: Q01DX005 (ip), vehicle: saline with Tween-80): 115 % of control
- T/C (dose: 200.0 mg/kg/injection, schedule: Q01DX005 (ip), vehicle: saline with Tween-80): 120 % of control

Structure (SMILES): Nc1cc(Cl)ncn1
- T/C (dose: 60.0 mg/kg/injection, schedule: Q01DX009 (ip), vehicle: saline): 100 % of control
- T/C (dose: 90.0 mg/kg/injection, schedule: Q01DX009 (ip), vehicle: saline): 97 % of control
- T/C (dose: 175.0 mg/kg/injection, schedule: Q01DX009 (ip), vehicle: saline): 97 % of control
- T/C (dose: 200.0 mg/kg/injection, schedule: Q01DX009 (ip), vehicle: Klucel (hydroxypropylcellulose) (HPC)): 95 % of control

Structure (SMILES): O=C(COc1cc(Cl)c(Cl)cc1Cl)OCCN(CCOC(=O)COc1cc(Cl)c(Cl)cc1Cl)C(=O)COc1ccc(Cl)cc1
- T/C (dose: 100.0 mg/kg/injection, schedule: Q04DX003 (ip), vehicle: other): 100 % of control
- T/C (dose: 200.0 mg/kg/injection, schedule: Q04DX003 (ip), vehicle: other): 86 % of control
- T/C (dose: 400.0 mg/kg/injection, schedule: Q04DX003 (ip), vehicle: other): 100 % of control

Structure (SMILES): CCOC(=O)c1cc[nH]c1CC(=O)NC
- T/C (dose: 200.0 mg/kg/injection, schedule: Q01DX001 (ip), vehicle: saline with Tween-80): 112 % of control
- T/C (dose: 400.0 mg/kg/injection, schedule: Q01DX001 (ip), vehicle: saline with Tween-80): 112 % of control

Structure (SMILES): O=C(N/N=C\c1ccc(N(CCCl)CCCl)cc1)c1cccnc1
- T/C (dose: 100.0 mg/kg/injection, schedule: Q01DX009 (ip), vehicle: gum acacia): 112 % of control
- T/C (dose: 200.0 mg/kg/injection, schedule: Q01DX009 (ip), vehicle: gum acacia): 172 % of control

Structure (SMILES): CCOC(=O)CN1C(=O)C(Cl)=C(Cl)C1=O
- T/C (dose: 3.12 mg/kg/injection, schedule: Q01DX009 (ip), vehicle: Klucel (hydroxypropylcellulose) (HPC)): 95 % of control
- T/C (dose: 6.25 mg/kg/injection, schedule: Q01DX009 (ip), vehicle: Klucel (hydroxypropylcellulose) (HPC)): 95 % of control
- T/C (dose: 9.2 mg/kg/injection, schedule: Q04DX003 (ip), vehicle: Klucel (hydroxypropylcellulose) (HPC)): 100 % of control
- T/C (dose: 14.0 mg/kg/injection, schedule: Q04DX003 (ip), vehicle: Klucel (hydroxypropylcellulose) (HPC)): 91 % of control
- T/C (dose: 21.0 mg/kg/injection, schedule: Q04DX003 (ip), vehicle: Klucel (hydroxypropylcellulose) (HPC)): 91 % of control
- T/C (dose: 29.0 mg/kg/injection, schedule: Q04DX003 (ip), vehicle: Klucel (hydroxypropylcellulose) (HPC)): 100 % of control

Structure (SMILES): c1ccc2c3c(ccc2c1)OCCOCCOc1ccc2ccccc2c1-3
- T/C [9]: 86 % of control
- T/C [5]: 88 % of control
- T/C [6]: 92 % of control
